Source: the supplement of paper PMC11451515

Columns and labels:
Assay in all cases: AUC of viability dose-response curve (% viability x log10 dose units); higher = less sensitive
Settings in all cases: 48 h
NOMO1 = test system: NOMO1
Method in brief: (§1)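 Leukemia cells adapted to each medium (500 or 1000 cells/well, 1536-well plates) were exposed to library compounds in DMSO for 48 h at 37°C at 11 threefold doses, 47 μM to 0.79 nM. Luminescence by CellTiter-Glo One was normalised per plate to DMSO and cell-free wells, then fitted with a four-parameter log-logistic curve on log10 dose. Curves above full viability were scaled and quality-control failures removed before area under the curve was integrated by trapezoidal rule.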

P12-Ichikawa = test system: P12-Ichikawa
Method in brief: as §1

SEM cells = test system: SEM cells
Method in brief: as §1

[1] = RPMI 5 mM glucose + 10% dialyzed FBS

Structure (SMILES) | AUC of viability dose-response curve (NOMO1; HPLM + 10% dialyzed FBS) | AUC of viability dose-response curve (NOMO1; RPMI 5 mM glucose + 10% FBS) | AUC of viability dose-response curve (NOMO1; [1]) | AUC of viability dose-response curve (P12-Ichikawa; HPLM + 10% dialyzed FBS) | AUC of viability dose-response curve (P12-Ichikawa; RPMI 5 mM glucose + 10% FBS) | AUC of viability dose-response curve (P12-Ichikawa; [1]) | AUC of viability dose-response curve (SEM cells; HPLM + 10% dialyzed FBS) | AUC of viability dose-response curve (SEM cells; RPMI 5 mM glucose + 10% FBS) | AUC of viability dose-response curve (SEM cells; [1])
COc1ccc(CC2SC(=O)NC2=O)cc1C(=O)NCc1ccc(C(F)(F)F)cc1 (stereo not given) | 416 | 415 | 427 | 430 | 396 | 361 | 381 | 439 | 393
O=C(c1ccc(C(=O)N2CCC(N3CCCC3)CC2)c(Nc2ccccc2)c1)N1CCC(N2CCCC2)CC1 | 462 | 452 | 458 | 468 | 466 | 465 | 443 | 461 | 462
Clc1ccc(C(Cn2ccnc2)OCc2ccc(Sc3ccccc3)cc2)c(Cl)c1 (stereo not given) | 441 | 450 | 453 | 453 | 453 | 455 | 416 | 445 | 438
Oc1ccc(C2CNCCc3c2cc(O)c(O)c3Cl)cc1 (stereo not given) | 449 | 425 | 454 | 453 | 456 | 427 | 441 | 426 | 438
CCOC\1=C(/C(=O)NC2=CC=C(OC3=C(Cl)C(=NC=C3)N)C(=C2)F)C(=O)N(\C=C1)C4=CC=C(F)C=C4 | 415 | 446 | 440 | 444 | 447 | 431 | 328 | 309 | 300
CNCCN(C)Cc1c[nH]nc1-c1ccc(O[C@H]2C[C@H](OCCC3CCOCC3)C2)cc1 | 457 | 461 | 465 | 457 | 472 | 468 | 436 | 397 | 431
CC(=O)[C@H]1CC[C@H]2[C@@H]3C/C=C4/C[C@@H](O)CC[C@]4(C)[C@H]3CC[C@]12C | 463 | 472 | 462 | 462 | 461 | 463 | 455 | 470 | 460
NC(=O)Cc1cccc(C(=O)c2ccccc2)c1N | 461 | 435 | 436 | 468 | 456 | 455 | 433 | 404 | 428
CC/C(=C(\c1ccccc1)c1ccc(OCCN(C)C)cc1)c1ccccc1 | 457 | 458 | 450 | 472 | 461 | 465 | 434 | 425 | 435
COc1c(C)c2c(c(O)c1C/C=C(\C)CCC(=O)OCCN1CCOCC1)C(=O)OC2 | 402 | 412 | 408 | 406 | 393 | 400 | 405 | 396 | 427
CC(C)C[C@@H](C(=O)N[C@H](C(=O)OC1CCCC1)c1ccccc1)[C@H](O)C(=O)NO | 451 | 449 | 446 | 446 | 424 | 441 | 454 | 423 | 399
CC1(C)CCC(=C(\C1)C2=CC=C(Cl)C=C2)/CN3CCN(CC3)C4=CC(=C(C=C4)C(=O)N[S+]([O-])(=O)C5=CC=C(NCC6CCOCC6)C(=C5)[N+]([O-])=O)OC7=CN=C8[NH]C=CC8=C7 | 355 | 347 | 290 | 436 | 436 | 449 | 186 | 198 | 175
COc1ccccc1N1CCN(CC(O)COc2cccc3ccccc23)CC1 (stereo not given) | 450 | 448 | 431 | 467 | 439 | 441 | 473 | 455 | 449
Oc1ccc(-c2nc(-c3ccncc3)c(-c3ccc(F)cc3)[nH]2)cc1 | 366 | 412 | 420 | 388 | 427 | 410 | 289 | 251 | 247
Cc1ccc(Nc2nccc(N(C)c3ccc4c(C)n(C)nc4c3)n2)cc1[S+](N)(=O)[O-] | 462 | 464 | 476 | 450 | 444 | 450 | 400 | 371 | 388
NCC/1=C/NC(=S)N1[C@H]2CCC3=C(F)C=C(F)C=C3C2 | 395 | 470 | 466 | 464 | 463 | 462 | 458 | 453 | 456
CCC[S+](=O)([O-])Nc1ccc(F)c(C(=O)c2c[nH]c3ncc(-c4ccc(Cl)cc4)cc23)c1F | 445 | 477 | 461 | 455 | 452 | 446 | 470 | 474 | 464
CCc1nc(C(N)=O)c(Nc2ccc(N3CCC(N4CCN(C)CC4)CC3)c(OC)c2)nc1NC1CCOCC1 | 389 | 410 | 363 | 438 | 436 | 434 | 291 | 285 | 277
NC(=O)c1c(OCc2c(F)cc(Br)cc2F)nsc1NC(=O)NCCCCN1CCCC1 | 370 | 450 | 421 | 430 | 445 | 436 | 415 | 397 | 435
CC1(C)NC(=O)N(c2ccc([N+](=O)[O-])c(C(F)(F)F)c2)C1=O | 439 | 431 | 407 | 424 | 410 | 371 | 404 | 454 | 461

Structure (SMILES) | AUC of viability dose-response curve (NOMO1; HPLM + 10% dialyzed FBS) | AUC of viability dose-response curve (NOMO1; RPMI 5 mM glucose + 10% FBS) | AUC of viability dose-response curve (NOMO1; [1]) | AUC of viability dose-response curve (P12-Ichikawa; HPLM + 10% dialyzed FBS) | AUC of viability dose-response curve (P12-Ichikawa; RPMI 5 mM glucose + 10% FBS) | AUC of viability dose-response curve (P12-Ichikawa; [1]) | AUC of viability dose-response curve (SEM cells; HPLM + 10% dialyzed FBS) | AUC of viability dose-response curve (SEM cells; RPMI 5 mM glucose + 10% FBS) | AUC of viability dose-response curve (SEM cells; [1])
COC1=CC=CC(=C1/C2=N/CC3=C(N=C(NC4=CC(=C(C=C4)C(O)=O)OC)N=C3)C5=CC=C(Cl)C=C25)F | 312 | 291 | 297 | 210 | 217 | 230 | 241 | 221 | 216
CN1C(=O)C(=C/2N(C(=O)N(C3CC3)C(=O)C2=C1/NC4=CC=C(I)C=C4F)C5=CC=CC(=C5)NC(C)=O)\C | 249 | 255 | 255 | 354 | 340 | 355 | 325 | 323 | 318
CC(C)(OCc1nn(Cc2ccccc2)c2ccccc12)C(=O)O | 460 | 442 | 467 | 473 | 459 | 427 | 475 | 471 | 477
COC(=O)[C@@H]1CC2=CC(=O)CC[C@]2(C)[C@@]23O[C@@H]2C[C@@]2(C)[C@@H](CC[C@@]24CCC(=O)O4)[C@H]13 | 456 | 467 | 450 | 458 | 446 | 451 | 444 | 456 | 421
CN1C(=O)\C(=C/C2=C1N=C(NC3CCOCC3)N=C2)OC4=C(F)C=C(F)C=C4 | 420 | 406 | 413 | 428 | 429 | 420 | 439 | 463 | 430
NC(=O)c1ncn([C@@H]2O[C@H](CO)[C@@H](O)[C@H]2O)c1N | 468 | 469 | 465 | 467 | 447 | 455 | 443 | 372 | 458
CC(=O)OCC(CCn1cnc2cnc(N)nc21)COC(C)=O | 454 | 464 | 462 | 470 | 470 | 465 | 445 | 434 | 440
Cc1nc(C(=O)NCC(=O)O)c(O)c2ccc(Oc3ccccc3)cc12 | 462 | 442 | 466 | 454 | 455 | 466 | 459 | 454 | 470
CC[C@@H](C)[C@H](NC(=O)[C@H](CC1CCCCC1)NC(=O)c1ccno1)C(=O)N1CCC2(CCc3ccccc32)CC1 | 399 | 385 | 385 | 418 | 394 | 388 | 382 | 381 | 449
OC[C@H]1O[C@H](C[C@@H]1O)N2\C=C(\I)C(=O)NC2=O | 456 | 470 | 446 | 435 | 462 | 472 | 452 | 454 | 386
O=C(Nc1cccc2c(=O)cc(-c3nnn[nH]3)oc12)c1ccc(OCCCCc2ccccc2)cc1 | 433 | 384 | 404 | 424 | 416 | 389 | 378 | 371 | 392
CC(C)N(CCCNC(=O)Nc1ccc(C(C)(C)C)cc1)C[C@H]1O[C@@H](n2cc(Br)c3c(N)ncnc32)[C@H](O)[C@@H]1O | 433 | 397 | 398 | 409 | 405 | 395 | 433 | 434 | 397
CN1CCN(c2cc(C(=O)Nc3ccc4c(c3)-c3c(c(C(N)=O)nn3-c3ccc(F)cc3)CC4)c(Cl)cn2)CC1 | 442 | 449 | 451 | 448 | 453 | 451 | 444 | 360 | 449
N[C@@H](Cc1cc(I)c(Oc2cc(I)c(O)c(I)c2)c(I)c1)C(=O)O | 456 | 473 | 429 | 445 | 460 | 468 | 463 | 454 | 438
CCN(CC)CCNC(=O)c1ccc2nc(-c3ccccc3)c(-c3ccc(CN4CCC(n5c(=O)[nH]c6ccccc65)CC4)cc3)nc2c1 | 354 | 400 | 399 | 355 | 380 | 358 | 246 | 221 | 243
NC(=O)[C@@H](CCC(F)(F)F)N(Cc1ccc(-c2ncon2)cc1F)[S+](=O)([O-])c1ccc(Cl)cc1 | 436 | 413 | 426 | 430 | 421 | 403 | 430 | 381 | 385
N[C@@H](Cc1ccc(N(CCCl)CCCl)cc1)C(=O)O | 400 | 422 | 415 | 410 | 374 | 387 | 377 | 355 | 362
COCCNCCCn1c(C(=O)CF)c(-c2ccc(C)cc2)c2c(N)ncnc21 | 470 | 417 | 453 | 456 | 445 | 448 | 438 | 367 | 410
N[S+](=O)([O-])c1cc2c(cc1Cl)NCN[S+]2(=O)[O-] | 468 | 477 | 470 | 466 | 468 | 474 | 450 | 442 | 412
O=C1C(CCC(O)c2ccc(F)cc2)C(c2ccc(O)cc2)N1c1ccc(F)cc1 (stereo not given) | 461 | 435 | 469 | 472 | 472 | 465 | 477 | 470 | 466
